Consider 24 compounds from patent US12581252B2, “Substituted pyrrolo[3,4-b]pyridines as PI3K-α inhibitors” (Relay Therapeutics, Inc., priority 2020, dated 2026).

Structures are written as SMILES.

The target in the experiment is H1047R PIK3CA enzyme (Homo sapiens, UniProt P42336, H1047R). Briefly: ADP-Glo Biochemical PIK3CA Kinase Assay. Background: ADP-Glo first removes unused ATP, then detects ADP through luciferase.
H1047R PIK3CA enzyme, sequence (P42336 whole entry H1047R): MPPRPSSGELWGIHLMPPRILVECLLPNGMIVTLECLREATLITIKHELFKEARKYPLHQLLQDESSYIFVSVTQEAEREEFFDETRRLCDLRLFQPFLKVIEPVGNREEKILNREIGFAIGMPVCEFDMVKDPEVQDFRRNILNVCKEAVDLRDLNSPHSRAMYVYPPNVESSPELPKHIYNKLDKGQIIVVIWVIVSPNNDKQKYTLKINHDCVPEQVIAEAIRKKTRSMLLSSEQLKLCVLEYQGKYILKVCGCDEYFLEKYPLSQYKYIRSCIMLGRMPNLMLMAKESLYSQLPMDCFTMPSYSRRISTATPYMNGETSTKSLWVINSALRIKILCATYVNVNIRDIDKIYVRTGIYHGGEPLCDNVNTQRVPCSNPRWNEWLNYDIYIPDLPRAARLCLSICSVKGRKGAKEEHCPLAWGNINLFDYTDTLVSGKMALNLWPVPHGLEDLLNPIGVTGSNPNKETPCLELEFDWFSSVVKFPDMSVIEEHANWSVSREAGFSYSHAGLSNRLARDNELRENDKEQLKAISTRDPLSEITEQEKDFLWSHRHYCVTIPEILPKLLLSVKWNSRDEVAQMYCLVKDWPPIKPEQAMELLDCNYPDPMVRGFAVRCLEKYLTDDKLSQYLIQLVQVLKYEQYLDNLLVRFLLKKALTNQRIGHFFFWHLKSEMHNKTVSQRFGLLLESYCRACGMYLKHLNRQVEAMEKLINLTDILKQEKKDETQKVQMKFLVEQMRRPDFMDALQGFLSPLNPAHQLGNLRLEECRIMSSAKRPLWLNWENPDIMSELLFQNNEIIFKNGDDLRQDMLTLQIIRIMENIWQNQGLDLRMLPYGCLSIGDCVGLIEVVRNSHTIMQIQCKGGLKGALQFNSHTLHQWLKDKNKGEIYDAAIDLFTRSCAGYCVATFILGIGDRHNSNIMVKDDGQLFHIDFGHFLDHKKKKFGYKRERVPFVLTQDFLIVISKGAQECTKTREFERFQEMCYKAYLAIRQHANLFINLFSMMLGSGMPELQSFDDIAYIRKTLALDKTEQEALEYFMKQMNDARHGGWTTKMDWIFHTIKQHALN
H1047R PIK3CA enzyme, sequence (P27986 whole entry partner): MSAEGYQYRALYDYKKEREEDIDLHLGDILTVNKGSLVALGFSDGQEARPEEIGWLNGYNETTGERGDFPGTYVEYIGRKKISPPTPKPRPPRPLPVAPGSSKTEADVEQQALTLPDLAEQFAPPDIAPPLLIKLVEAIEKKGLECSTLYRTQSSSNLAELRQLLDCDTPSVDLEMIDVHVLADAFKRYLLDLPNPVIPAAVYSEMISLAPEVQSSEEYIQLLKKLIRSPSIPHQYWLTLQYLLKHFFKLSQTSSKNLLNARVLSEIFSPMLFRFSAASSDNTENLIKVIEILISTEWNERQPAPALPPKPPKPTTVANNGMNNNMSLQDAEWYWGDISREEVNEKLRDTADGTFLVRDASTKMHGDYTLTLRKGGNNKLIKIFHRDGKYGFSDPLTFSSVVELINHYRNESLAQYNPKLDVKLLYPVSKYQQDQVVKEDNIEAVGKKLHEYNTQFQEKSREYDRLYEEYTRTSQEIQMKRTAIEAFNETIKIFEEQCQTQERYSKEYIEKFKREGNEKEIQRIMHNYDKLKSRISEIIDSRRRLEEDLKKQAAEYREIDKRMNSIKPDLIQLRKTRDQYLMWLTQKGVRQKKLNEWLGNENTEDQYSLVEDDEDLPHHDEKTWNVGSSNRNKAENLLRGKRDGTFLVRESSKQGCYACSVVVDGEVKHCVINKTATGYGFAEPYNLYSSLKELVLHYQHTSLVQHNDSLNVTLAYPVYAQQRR
Take `NCC(O)c1cc(NC(=O)c2cc(F)cc(C(F)(F)F)c2)c2c(c1)C(=O)NC2c1cc(F)ccc1Cl` (stereo not drawn) [Compound I-1290]: the IC50 (commonly the concentration needed to halve the response being measured) is 100 to 500 nM.

The compound `O=C(Nc1cc(N2CC3CNCC3C2=O)cc2c1C(c1cc(F)ccc1Cl)NC2=O)c1cc(F)cc(C(F)(F)F)c1` (stereo not drawn) [Compound I-1291] gave a concentration for half-maximal inhibition (IC50) of no more than 100 nM.

`CC(c1cc(NC(=O)c2cc(F)cc(C(F)(F)F)c2)c2c(c1)C(=O)NC2c1cc(F)ccc1Cl)S(C)(=O)=O` (stereo not drawn) [Compound I-1292] displayed an IC50 of no more than 100 nM.

Compound `Cn1nccc1Cc1cc(NC(=O)c2cc(F)cc(C(F)(F)F)c2)c2c(c1)C(=O)NC2c1cc(F)ccc1Cl` (stereo not drawn) [Compound I-1293] showed an IC50 of no more than 100 nM.

Compound `O=C(Nc1cc(Br)cc2c1C(c1cc(F)ccc1Cl)NC2=O)NC1(C(F)(F)F)CC1` (stereo not drawn) [Compound I-1294] came in with an IC50 of 1000 to 10000 nM.

For the compound `CS(=O)(=O)c1cc(NC(=O)c2cc(F)cc(C(F)(F)F)c2)c2c(c1)C(=O)NC2(c1cc(F)ccc1Cl)S(=O)(=O)O` (stereo not drawn) [Compound I-1296], the IC50 fell in the range of 1000 to 10000 nM.

Take `CC(C)(C)OC(=O)NCCSc1cc(NC(=O)c2cc(F)cc(C(F)(F)F)c2)c2c(c1)C(=O)NC2c1cc(F)ccc1Cl` (stereo not drawn) [Compound I-1297]: the IC50 is 100 to 500 nM.

Compound `NCCOc1cc(NC(=O)c2cc(F)cc(C(F)(F)F)c2)c2c(c1)C(=O)NC2c1cc(F)ccc1Cl` (stereo not drawn) [Compound I-1298] gave a 50% inhibitory concentration (IC50) of 100 to 500 nM.

Take `O=C(Nc1cc(N2CC3(CNC3)C2)cc2c1C(c1cc(F)ccc1Cl)NC2=O)c1cc(F)cc(C(F)(F)F)c1` (stereo not drawn) [Compound I-1299]: the IC50 lay within 100 to 500 nM.

The compound `O=C(Nc1cc(-c2cn3ccncc3n2)cc2c1C(c1cc(F)ccc1Cl)NC2=O)c1cc(F)cc(C(F)(F)F)c1` (stereo not drawn) [Compound I-1300] yielded an IC50 of no more than 100 nM.

With `CC(=O)N1CC2(C1)CN(c1cc(NC(=O)c3cc(F)cc(C(F)(F)F)c3)c3c(c1)C(=O)NC3c1cc(F)ccc1Cl)C2` (stereo not drawn) [Compound I-1301], the IC50 was in the range of 100 to 500 nM.

`O=C(Nc1cc(CC2CCO2)cc2c1C(c1cc(F)ccc1Cl)NC2=O)c1cc(F)cc(C(F)(F)F)c1` (stereo not drawn) [Compound I-1302] returned an IC50 of no more than 100 nM.

Turning to `N#CCn1nccc1-c1cc(NC(=O)c2cc(F)cc(C(F)(F)F)c2)c2c(c1)C(=O)NC2c1cc(F)ccc1Cl` (stereo not drawn) [Compound I-1303], the IC50 was no more than 100 nM.

As for `O=C(Nc1cc(-c2cn3ncccc3n2)cc2c1C(c1cc(F)ccc1Cl)NC2=O)c1cc(F)cc(C(F)(F)F)c1` (stereo not drawn) [Compound I-1306], the half-inhibitory concentration (IC50) was no more than 100 nM.

`O=C1COC(c2cc(NC(=O)c3cc(F)cc(C(F)(F)F)c3)c3c(c2)C(=O)NC3c2cc(F)ccc2Cl)CN1` (stereo not drawn) [Compound I-1308] had an IC50 of no more than 100 nM.

`O=C(Nc1cc(N2CC3CNC(=O)C3C2)cc2c1C(c1cc(F)ccc1Cl)NC2=O)c1cc(F)cc(C(F)(F)F)c1` (stereo not drawn) [Compound I-1309]: the IC50 is no more than 100 nM.

On to `O=C(Nc1cc(N2CC3(CCO3)C2)cc2c1C(c1cc(F)ccc1Cl)NC2=O)c1cc(F)cc(C(F)(F)F)c1` (stereo not drawn) [Compound I-1310], for which the IC50 was in the range of 100 to 500 nM.

Compound `N#Cc1nc(-c2cc(NC(=O)c3cc(F)cc(C(F)(F)F)c3)c3c(c2)C(=O)NC3c2cc(F)ccc2Cl)cs1` (stereo not drawn) [Compound I-1311] yielded an IC50 of no more than 100 nM.

Regarding `CS(=O)(Cc1cc(NC(=O)c2cc(F)cc(C(F)(F)F)c2)c2c(c1)C(=O)NC2c1cc(F)ccc1Cl)=NC#N` (stereo not drawn) [Compound I-1312], the IC50 is no more than 100 nM.

`O=C(Nc1cc(Br)cc2c1C(c1cc(F)ccc1Cl)NC2=O)c1ccc(OC(F)(F)F)c(F)c1` (stereo not drawn) [Compound I-1313] returned an IC50 of 1000 to 10000 nM.

`O=C(Nc1cc(Br)cc2c1C(c1cc(F)ccc1Cl)NC2=O)c1cccc(SC(F)(F)F)c1` (stereo not drawn) [Compound I-1314] came in with an IC50 of 1000 to 10000 nM.

In turn, `O=C1NC(c2cc(F)ccc2Cl)c2c(Nc3n[nH]c4ccccc34)cc(Br)cc21` (stereo not drawn) [Compound I-1315] had an IC50 of 10000 to 100000 nM.

As to `COCc1cc(F)cc(C(=O)Nc2cc(Br)cc3c2C(c2cc(F)ccc2Cl)NC3=O)c1` (stereo not drawn) [Compound I-1316], the 50% inhibitory concentration (IC50) is 1000 to 10000 nM.

`O=C1NC(c2cc(F)ccc2Cl)c2c1cccc2-c1cc2c(Cl)cc(F)cc2[nH]1` (stereo not drawn) [Compound I-1317] had an IC50 of 100 to 500 nM.
